From US20200062705A1, “NOVEL CRYSTALLINE FORMS” (Biogen MA Inc., priority 2017, published 2020)

Key:
Assay type in all cases: physicochemical
[1] = Powder bulk density analysis (ring shear tester); conditions: for Initial Density: initial bulk density, corresponds to x = 0 in FIG. 21, mass of powder normalized by volume of the cell; for Density results (Table 21 and FIG. 21) compared with the product of Route D (E12): initial density and density at varying stresses, higher density = more ideal packing
From the text: Solid forms prepared according to the procedures described for Routes D, E, and F (Examples 12-14, respectively) were subjected to powder bulk density analysis in accordance with the following procedure.
A ring shear tester (RST-XS.s, Dietmar Schulze, Wolfenbüttel, Germany) with RST CONTROL 95 software was used for the bulk density analysis. For this analysis, Low-Stress Shear Cell, XS-Lr0, bottom ring was over-filled with small portions of powder using a spatula. The excess powder was removed by gently scraping off the powder with the spatula until the powder was flush with the top of the ring. The bottom ring was weighed and the total mass was entered. When prompted the shear cell lid was attached to the loading rod and the filled bottom ring placed on the driving axle for the test. The initial bulk density was calculated by the control software from the mass of powder normalized by the volume of the cell. During the shear test, 5 preshear normal stresses, 0.1, 0.2, 0.3, 0.4, and 0.5 kPa were applied to the powder before it was sheared until steady state was achieved. At each preshear normal stress, the powder was sheared to failure at 5 increasing normal stresses between 0 and the preshear normal stress to generate corresponding shear stresses at failure. A yield locus was generated by applying a linear regression to the shear stresses as a function of the normal stress plot. The Major Principal Stress (x-axis) was the maximum value obtained when a Mohr's circle was drawn through the preshear normal stress and tangential to the yield locus. The volume of powder at each steady state was determined from the change in height of the lid and, together with the initial powder mass, used to calculate the powder bulk densities (y-axis).

[2] = Powder flow function analysis (ring shear tester); conditions: FIG. 22; lower flow function curve = good flow
From the text: Solid forms prepared according to the procedures described for Routes D, E, and F (Examples 12-14, respectively) were subjected to powder flow function analysis in accordance with the following procedure:
A ring shear tester (RST-XS.s, Dietmar Schulze, Wolfenbüttel, Germany) with RST CONTROL 95 software was used for the flow function analysis. For this analysis, Low-Stress Shear Cell, XS-Lr0, bottom ring was over-filled with small portions of powder using a spatula. The excess powder was removed by gently scraping off the powder with the spatula until the powder was flush with the top of the ring. The bottom ring was weighed and the total mass was entered. When prompted the shear cell lid was attached to the loading rod and the filled bottom ring placed on the driving axle for the test. To obtain a flow function, 5 yield loci were determined using the “Stress Walk” function in the control software. During the shear test, 5 preshear normal stresses, 0.1, 0.2, 0.3, 0.4, and 0.5 kPa were applied to the powder to generate the 5 yield loci. At each preshear normal stress, the powder was sheared to failure at 5 equally-spaced normal stresses between 0 and the preshear normal stress to generate corresponding shear stresses at failure. Each yield locus was derived by applying a linear regression to the shear stresses as a function of the normal stress plot. […]

[3] = Powder time consolidation behavior analysis (ring shear tester); conditions: FIG. 23; 0 hrs vs 12 hrs storage, x=250 Pa
From the text: Solid forms prepared according to the procedures described for Routes E and F (Examples 13 and 14, respectively) were subjected to powder time consolidation behavior analysis in accordance with the following procedure.
A ring shear tester (RST-XS.s, Dietmar Schulze, Wolfenbüttel, Germany) with RST CONTROL 95 software was used for the flow function analysis. For this analysis, Low-Stress Shear Cell, XS-Lr0, bottom ring was over-filled with small portions of powder using a spatula. The excess powder was removed by gently scraping off the powder with the spatula until the powder was flush with the top of the ring. The bottom ring was weighed and the total mass was entered. When prompted the shear cell lid was attached to the loading rod and the filled bottom ring placed on the driving axle for the test. For the time consolidation test, a yield locus was first obtained by applying a 0.1 kPa preshear stress and 5 normal stresses equally spaced between 0 and the preshear stress to the powder and determining the corresponding shear stresses. A fresh powder sample was again prepared and conditioned to a similar steady state as that for the just obtained yield locus. […] The change in the shear stress obtained after this new conditioned state was determined and that represents the time consolidation behavior of the powder. […]

[4] = Relative stability of crystalline forms; conditions: comparison among crystalline forms identified

Row | SMILES | Initial Density [1] [g/mL] | Density results (Table 21 and FIG. 21) compared with the product of Route D (E12) [1] | Powder flow (flow function curve: unconfined yield strength vs major principal stress) compared with a product of Route D (E12) [2] | Time consolidation effect (unconfined yield strength gained on storage) [3] | Stability of the crystalline form relative to other forms [4]
1 | Cl.NC(=O)[C@@H]1CC[C@H](c2ccc(OCc3ccccc3F)cc2)N1 [Form 1, (5R)-5-(4-{[(2-Fluorophenyl)methyl]oxy}phenyl)-L-prolinamide Hydrochloride Form 1 (Anhydrous A)] |  |  |  |  | most stable crystalline form identified to date
2 | Cl.NC(=O)[C@@H]1CC[C@H](c2ccc(OCc3ccccc3F)cc2)N1 [Form 9, (5R)-5-(4-{[(2-Fluorophenyl)methyl]oxy}phenyl)-L-prolinamide Hydrochloride Form 9 (Anhydrous B)] |  |  |  |  | less stable than Anhydrous Form A (Form 1)
3 | Cl.NC(=O)[C@@H]1CC[C@H](c2ccc(OCc3ccccc3F)cc2)N1 [Form 10, (5R)-5-(4-{[(2-Fluorophenyl)methyl]oxy}phenyl)-L-prolinamide Hydrochloride Form 10 (Anhydrous C)] |  |  |  |  | less stable than Anhydrous Form A (Form 1)

More lines, main results first:

Row | Initial Density [1] [g/mL] | Density results (Table 21 and FIG. 21) compared with the product of Route D (E12) [1] | Powder flow (flow function curve: unconfined yield strength vs major principal stress) compared with a product of Route D (E12) [2] | SMILES | Time consolidation effect (unconfined yield strength gained on storage) [3] | Stability of the crystalline form relative to other forms [4]
4 | 0.254 |  |  | Cl.NC(=O)[C@@H]1CC[C@H](c2ccc(OCc3ccccc3F)cc2)N1 [Example E12, (5R)-5-(4-{[(2-Fluorophenyl)methyl]oxy}phenyl)-L-prolinamide Hydrochloride (Anhydrous; Route D)] |  | 
5 | 0.565 | far superior | better | Cl.NC(=O)[C@@H]1CC[C@H](c2ccc(OCc3ccccc3F)cc2)N1 [Example E13, (5R)-5-(4-{[(2-Fluorophenyl)methyl]oxy}phenyl)-L-prolinamide Hydrochloride (Anhydrous; Route E)] |  | 
6 | 0.512 | far superior | better | Cl.NC(=O)[C@@H]1CC[C@H](c2ccc(OCc3ccccc3F)cc2)N1 [Example E14, (5R)-5-(4-{[(2-Fluorophenyl)methyl]oxy}phenyl)-L-prolinamide Hydrochloride (Anhydrous; Route F)] | does not exhibit as much of a consolidation effect as the product of Route E (E13) | 
